Assay results as given in PubChem BioAssay AID214 (DTP/NCI, 2004).
“And” between values parts separate entries of the source, which are not always exact repeats. Identical values can stand only once. Records with an inconclusive call do not appear.

Test system: B6C3F1 mice, colon carcinoma 38 s.c., T/C
Experiment: NCI In Vivo Anticancer Drug Screen. Data for tumor model Colon Carcinoma 38 (subcutaneous) in B6C3F1 mice
Conditions: endpoint: median tumor weight (est.), schedule: Q07DX002 (ip), higher = larger tumour
Description: The antitumor activity of compounds was measured in mice bearing transplantable tumors. Survival or tumor size were measured and the results are expressed as the measurement made in the treated group (T) divided by the measurement made in the vehicle treated control group (C). The tumor model used in this assay is Colon Carcinoma 38 (subcutaneous) in B6C3F1 mice

[1] = dose: 2.0 mg/kg/injection, vehicle: saline
[2] = dose: 4.0 mg/kg/injection, vehicle: saline
[3] = dose: 50.0 mg/kg/injection, vehicle: saline
[4] = dose: 100.0 mg/kg/injection, vehicle: saline
[5] = dose: 100.0 mg/kg/injection, vehicle: saline with Tween-80
[6] = dose: 200.0 mg/kg/injection, vehicle: saline with Tween-80
[7] = dose: 400.0 mg/kg/injection, vehicle: saline with Tween-80
[8] = dose: 800.0 mg/kg/injection, vehicle: saline with Tween-80
[9] = dose: 50.0 mg/kg/injection, vehicle: Klucel (hydroxypropylcellulose) (HPC)
[10] = dose: 100.0 mg/kg/injection, vehicle: Klucel (hydroxypropylcellulose) (HPC)
[11] = dose: 200.0 mg/kg/injection, vehicle: Klucel (hydroxypropylcellulose) (HPC)
[12] = dose: 400.0 mg/kg/injection, vehicle: Klucel (hydroxypropylcellulose) (HPC)
[13] = dose: 800.0 mg/kg/injection, vehicle: Klucel (hydroxypropylcellulose) (HPC)

## COC(=O)C[C@](O)(CCC(C)(C)O)C(=O)O[C@@H]1C(OC)=C[C@]23CCCN2CCc2cc4c(cc2[C@H]13)OCO4
dose: 0.5 mg/kg/injection, vehicle: saline
  T/C: 117 % of control
dose: 1.0 mg/kg/injection, vehicle: saline
  T/C: 54 % of control
[1]
  T/C: 40 % of control
[2]
  T/C: 14 % of control

## CC(C)NCC(O)COc1ccc(O)c(O)c1 (stereo not drawn)
[3]
  T/C: 97 % of control
[4]
  T/C: 94 % of control

## S=C(NCNC(=S)c1ccncc1)c1ccncc1
[5]
  T/C: 70 % of control
[6]
  T/C: 104 % of control
[7]
  T/C: 70 % of control
[8]
  T/C: 66 % of control

## O=c1[nH]cnc2nc(/N=N/SCCO)[nH]c12
[9]
  T/C: 115 % of control
[10]
  T/C: 114 % of control
[11]
  T/C: 101 % of control

## OCCO
dose: 1.0 % in 0.5 ml injection vol, vehicle: water
  T/C: 181 % of control
dose: 2.0 % in 0.5 ml injection vol, vehicle: water
  T/C: 160 % of control

## Cc1c(N)nc([C@H](CC(N)=O)NC[C@H](N)C(N)=O)nc1C(=O)N[C@H](C(=O)N[C@H](C)[C@@H](O)[C@H](C)C(=O)N[C@H](C(=O)NCCc1nc(-c2nc(C(=O)NCCC[S+](C)C)cs2)cs1)[C@@H](C)O)C(OC1OC(CO)C(O)C(O)C1OC1OC(CO)C(O)C(OC(N)=O)C1O)c1cnc[nH]1 (stereo partly drawn)
dose: 16.0 mg/kg/injection, vehicle: saline
  T/C: 26 % of control
dose: 32.0 mg/kg/injection, vehicle: saline
  T/C: 14 % of control
dose: 64.0 mg/kg/injection, vehicle: saline
  T/C: 35 % of control
dose: 128.0 mg/kg/injection, vehicle: saline
  T/C: 9 % of control

## OC(C1CO1)C(O)C1CO1 (stereo not drawn)
[1]
  T/C: 117 % of control
[2]
  T/C: 107 % of control
dose: 8.0 mg/kg/injection, vehicle: saline
  T/C: 57 % of control

## Cn1cc(C2NC(=O)c3ccccc3N2)c2ccccc21 (stereo not drawn)
[9]
  T/C: 46 % of control
[10]
  T/C: 244 % of control
[11]
  T/C: 42 % of control and 63 % of control
[12]
  T/C: 151 % of control
dose: 1600.0 mg/kg/injection, vehicle: Klucel (hydroxypropylcellulose) (HPC)
  T/C: 96 % of control

## CC(=O)C(=O)O.CC(=O)C(=O)O.[NH-]C1CCCCC1[NH-].[Pt+2] (stereo not drawn)
dose: 6.25 mg/kg/injection, vehicle: dextrose
  T/C: 83 % of control
dose: 12.5 mg/kg/injection, vehicle: dextrose
  T/C: 31 % of control
dose: 25.0 mg/kg/injection, vehicle: dextrose
  T/C: 31 % of control
dose: 50.0 mg/kg/injection, vehicle: dextrose
  T/C: 16 % of control

## CN(C)c1ccc2c(SCC(=O)OCC(=O)[C@@]3(O)CC[C@H]4[C@@H]5CCC6=CC(=O)C=C[C@]6(C)[C@H]5C(=O)C[C@@]43C)c3ccc(N(C)C)cc3nc2c1
[9]
  T/C: 105 % of control
[10]
  T/C: 78 % of control
[11]
  T/C: 81 % of control
[12]
  T/C: 82 % of control
[13]
  T/C: 16 % of control

## C[C@@]1(CO)[C@H](O)CC[C@@]2(C)[C@H]1CC[C@H]1C[C@@H]3C[C@@]12CC[C@@]3(O)COC(=O)CN
dose: 0.4 mg/kg/injection, vehicle: saline + alcohol
  T/C: 61 % of control
dose: 0.8 mg/kg/injection, vehicle: saline + alcohol
  T/C: 88 % of control
dose: 1.6 mg/kg/injection, vehicle: saline + alcohol
  T/C: 54 % of control
dose: 3.2 mg/kg/injection, vehicle: saline + alcohol
  T/C: 63 % of control
dose: 6.4 mg/kg/injection, vehicle: saline + alcohol
  T/C: 106 % of control

## CCCCCC1c2cc(O)ccc2OC1N1CCOCC1 (stereo not drawn)
dose: 25.0 mg/kg/injection, vehicle: saline with Tween-80
  T/C: 103 % of control
dose: 50.0 mg/kg/injection, vehicle: saline with Tween-80
  T/C: 74 % of control
[5]
  T/C: 92 % of control
[7]
  T/C: 81 % of control

## CCN(CC)CCOC(=O)Cc1cc(OC)cc2c(=O)cc(-c3ccccc3)oc12
[11]
  T/C: 37 % of control
[12]
  T/C: 73 % of control

## O=C(COc1cccc2c(=O)cc(-c3ccccc3)oc12)OCCN1CCOCC1
[4]
  T/C: 81 % of control
dose: 200.0 mg/kg/injection, vehicle: saline
  T/C: 43 % of control

## CCCCCC(O)C1C(=O)OC(C)C(O)/C=C/C=C/C=C/C=C\C=C(\C)C(O)CC(O)CC(O)CC(O)CC(O)CC(O)CC1O (stereo not drawn)
dose: 6.25 mg/kg/injection, vehicle: water
  T/C: 81 % of control
dose: 12.5 mg/kg/injection, vehicle: water
  T/C: 103 % of control
dose: 25.0 mg/kg/injection, vehicle: water
  T/C: 77 % of control
dose: 50.0 mg/kg/injection, vehicle: water
  T/C: 69 % of control
dose: 100.0 mg/kg/injection, vehicle: water
  T/C: 62 % of control

## NC(=O)c1ccc[n+](Cc2c(Cl)cccc2Cl)c1
dose: 25.0 mg/kg/injection, vehicle: saline
  T/C: 86 % of control
[3]
  T/C: 94 % of control

## Oc1cc2ccccc2c(-c2c(O)c(O)cc3ccccc23)c1O
[6]
  T/C: 70 % of control
[7]
  T/C: 62 % of control
[8]
  T/C: 104 % of control

## CC(CN1CC(=O)NC(=O)C1)N1CC(=O)NC(=O)C1 (stereo not drawn)
[10]
  T/C: 82 % of control
[11]
  T/C: 40 % of control
[12]
  T/C: 2 % of control
[13]
  T/C: 1 % of control

## CSCS(=O)C[C@H](CO)NC(=O)/C=C/c1c(C)[nH]c(=O)[nH]c1=O (stereo partly drawn)
[1]
  T/C: 74 % of control
[2]
  T/C: 66 % of control

## O.O.[NH-]C1CCCCC1[NH-].[Pt+2] (stereo not drawn)
dose: 10.0 mg/kg/injection, vehicle: dextrose
  T/C: 72 % of control
dose: 20.0 mg/kg/injection, vehicle: dextrose
  T/C: 60 % of control
dose: 40.0 mg/kg/injection, vehicle: dextrose
  T/C: 29 % of control
dose: 80.0 mg/kg/injection, vehicle: dextrose
  T/C: 16 % of control and 17 % of control

## CC[C@H](CC[C@@H](C)C1CC[C@H]2[C@@H]3CC=C4C[C@@H](OP(=O)(N5CC5)N5CC5)CC[C@]4(C)[C@H]3CC[C@]12C)C(C)C (stereo partly drawn)
dose: 225.0 mg/kg/injection, vehicle: saline with Tween-80
  T/C: 246 % of control
dose: 450.0 mg/kg/injection, vehicle: saline with Tween-80
  T/C: 205 % of control
dose: 900.0 mg/kg/injection, vehicle: saline with Tween-80
  T/C: 115 % of control

## CCN(CC)c1ccc2[nH]c3c(C(N)=O)cc(=O)c(=O)c=3oc2c1
[5]
  T/C: 93 % of control
[6]
  T/C: 99 % of control
[7]
  T/C: 93 % of control

## CC(=O)N(C)O
[5]
  T/C: 124 % of control
[6]
  T/C: 116 % of control
[7]
  T/C: 91 % of control
[8]
  T/C: 101 % of control

## ClCCCN1CCN(CCCl)CC1
dose: 5.0 mg/kg/injection, vehicle: saline
  T/C: 101 % of control
dose: 10.0 mg/kg/injection, vehicle: saline
  T/C: 83 % of control
dose: 20.0 mg/kg/injection, vehicle: saline
  T/C: 44 % of control

## CSc1ncc2ncn(C3OC(CO)C(O)C3O)c2n1 (stereo not drawn)
[10]
  T/C: 120 % of control
[11]
  T/C: 78 % of control
[12]
  T/C: 120 % of control

## CCOC(=O)c1c[nH]c2oc(/C=N/N3CC(CN4CCOCC4)OC3=O)cc2c1=O (stereo not drawn)
dose: 150.0 mg/kg/injection, vehicle: other
  T/C: 83 % of control
dose: 300.0 mg/kg/injection, vehicle: other
  T/C: 56 % of control
dose: 600.0 mg/kg/injection, vehicle: other
  T/C: 29 % of control
